Measurements: patent publication US12721840B2, “Methods of treating glioblastoma multiforme using combination therapy” (MediciNova, Inc., priority 2021, dated 2026)

How the values were obtained:
[1] = test system: GBM orthotopic tumors (SB28 cells); assay: Murine GBM model: survival of mice bearing orthotopic syngeneic SB28 tumors; type: in vivo; details: syngeneic mouse model, 20,000 SB28 cells; ibudilast 50 mg/kg, anti-PD1 25 μg/dose; 3 intraperitoneal injections 3 days apart from day 7 post-engraftment; n=10 male mice/group; control 17 days
Experimental: FIGURE depicts results from a murine glioblastoma model (ibudilast treatment in a syngeneic mouse model (20,000 SB28 cells) synergized with anti-PD1), in which mice are treated with ibudilast, an anti-PD-1 antibody, or a combination of ibudilast and an anti-PD-1 antibody. Isotype serves as negative control for the anti-PD-1 antibody and vehicle serves as negative control for ibudilast. Treatment was initiated at day 7 post-engraftment with 3 intraperitoneal injections 3 days apart; n=10 mice/group (male); median survival provided for each group, *p<0.05, **p<0.01, ***p<0.001 as assessed by log-rank (colored stars indicate comparison to each control group).
Mice bearing GBM orthotopic tumors were subjected to treatment with a PD-1 antibody in the presence or absence of ibudilast (or to ibudilast alone) and evaluated for their survival after the start of treatment. More particularly, ibudilast treatment (50 mg/kg) was performed in a syngeneic mouse model (20,000 SB28 cells) synergized with anti-PD1 (25 μg/dose). Treatment was initiated at day 7 post-engraftment with 3 intraperitoneal injections 3 days apart; n=10 mice/group (male).

[2] = literature statement (Sanftner et al Xenobiotica 2009; Chen et al. 2002); cited from earlier work

Compound | median survival [1] | penetration into the central nervous system (CNS) [2]
CC(C)C(=O)c1c(C(C)C)nn2ccccc12 [Ibudilast, 3-isobutyryl-2-isopropylpyrazolo[1,5-a]pyridine] | did not impact median survival | good CNS penetration
COc1ccc(C2CNC(=O)C2)cc1OC1CCCC1 (stereo not drawn) [rolipram] |  | poor penetration into the central nervous system
